# Patent US20250099448A1, “HETEROCYCLIC COMPOUNDS” (Hoffmann-La Roche Inc., priority 2022, published 2025)
# Target: T1, MAGL protein (Homo sapiens, UniProt Q99685)
# T1 sequence (Q99685 1-303): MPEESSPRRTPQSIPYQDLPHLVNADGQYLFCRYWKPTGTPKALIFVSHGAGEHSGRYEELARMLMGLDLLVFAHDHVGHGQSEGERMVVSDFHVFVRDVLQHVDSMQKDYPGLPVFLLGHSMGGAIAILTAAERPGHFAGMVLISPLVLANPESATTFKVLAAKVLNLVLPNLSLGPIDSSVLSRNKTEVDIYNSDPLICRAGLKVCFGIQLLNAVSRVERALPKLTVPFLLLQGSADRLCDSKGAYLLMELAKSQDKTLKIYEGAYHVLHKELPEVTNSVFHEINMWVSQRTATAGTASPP
# Test: 2-AG assay: MAGL inhibitory activity by hydrolysis of 2-arachidonoylglycerol to arachidonic acid, followed by mass spectrometry
# Assay type: biochemical
# Details: 8 μM 2-arachidonoylglycerol, 15 min preincubation, 30 min reaction at RT, RapidFire MS readout
# How it was run: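 Activity was measured by RapidFire SPE–triple-quad MS as the ratio of arachidonic acid to d8-arachidonic acid after 2-AG hydrolysis (8 μM substrate, 30 min, RT, acetonitrile quench). Compounds, tested from 12.5 μM down to […], were first preincubated 15 min with MAGL in TRIS/EDTA/Tween-20 buffer containing 2.5% DMSO.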
row,SMILES,IC50 [nM]
1,O=C(N1CC2(CC(c3nnc(C4(O)CC4)[nH]3)C2)C1)N1CC2(C1)CN(S(=O)(=O)c1ccc(C(F)(F)F)cc1)C2 [compound 104],198
2,O=C(N1CC2(CCC(Oc3ccc(C(F)(F)F)nn3)CC2)C1)N1CC2(CC(c3nnc(C4CC4)[nH]3)C2)C1 [compound 51],1.77
3,O=C(N1CC2(CC(c3nc(C4CC4)n[nH]3)C2)C1)N1CC2(CC(n3cnc(C4CC4)n3)C2)C1 [compound 746],8.64
4,"CS(=O)(=O)c1cc(Cl)ccc1CC1CC2(CCN(C(=O)N3CC4(CC(c5nnc(C6CC6)[nH]5)C4)C3)C2)C1 (centres unmarked) [Example 414, [2-(4-chloro-2-mesyl-benzyl)-6-azaspiro[3.4]octan-6-yl]-[6-(5-cyclopropyl-4H-1,2,4-triazol-3-yl)-2-azaspiro[3.3]heptan-2-yl]methanone]",38.1
5,O=C(N1CCC(COc2ccc(C(F)(F)F)nc2)CC1)N1CC2(CC(c3nnc(C4CC4)[nH]3)C2)C1 [Example 903],125
6,O=C(N1CC2(CCC(Cc3ncc(F)cc3F)CC2)C1)N1CC2(CC(c3nnc(C4CC4)[nH]3)C2)C1 [compound 142],0.84
7,O=C(N1CC(OCc2ccc(S(=O)(=O)C(F)(F)F)cc2)C1)N1CC2(CC(c3nnc(C4CC4)[nH]3)C2)C1 [compound 316],6.21
8,O=C(N1CC2(CC(Cc3ncc(Cl)cc3F)C2)C1)N1CC2(CC(c3nc(C4CC4)n[nH]3)C2)C1 [compound 613],0.91
9,O=C(N1CC2(CC(c3nc(C4CC4)n[nH]3)C2)C1)N1CC2(CN(Cc3nnnn3CC(F)(F)F)C2)C1 [compound 521],78.6
10,O=C(N1CCC(OCc2ccc(OC(F)(F)F)cc2F)CC1)N1CC2(CC(c3nc(C4CC4)n[nH]3)C2)C1 [compound 905],5.92
11,NC(=O)c1cc(CC2CC3(C2)CN(C(=O)N2CC4(CC(c5nc(C6CC6)n[nH]5)C4)C2)C3)ccc1OC(F)(F)F [compound 914],0.27
12,O=C(N1CC2(CCC(Oc3ccnc(C(F)(F)F)n3)CC2)C1)N1CC2(CC(c3nnc(C4CC4)[nH]3)C2)C1 [compound 73],3.24
13,O=C(N1CC2(CC(Cc3ncc(F)cc3F)C2)C1)N1CC2(CC(c3ncn[nH]3)C2)C1 [compound 988],2070
14,CC(C)(C)Cc1nnc(C23CC(C4CCN(C(=O)N5CC6(CC(c7nc(C8CC8)n[nH]7)C6)C5)CC4)(C2)C3)o1 [compound 439],4.22
15,O=C(N1CC(C23CC(c4ccc(OC(F)(F)F)cc4)(C2)C3)C1)N1CC2(CC(c3nc(C4(O)CC4)n[nH]3)C2)C1 [compound 551],0.18
16,O=C(N1CC(NCc2ccc(C(F)(F)F)cc2F)C1)N1CC2(CC(c3nnc(C4CCC4)[nH]3)C2)C1 [compound 206],232
17,"COc1cc(C(N)=O)ccc1COC1CCN(C(=O)N2CC3(CC(c4nnc(C5CC5)[nH]4)C3)C2)CC1 [Example 885, 4-[[1-[6-(5-cyclopropyl-4H-1,2,4-triazol-3-yl)-2-azaspiro[3.3]heptane-2-carbonyl]-4-piperidyl]oxymethyl]-3-methoxy-benzamide]",352
18,O=C(N1CC(c2ccc(C3CC(C(F)F)C3)cc2)C1)N1CC2(CC(c3nnc(C4(O)CC4)[nH]3)C2)C1 (centres unmarked) [compound 282],1.03
19,CC1(NCC2CC3(C2)CN(C(=O)N2CC4(CC(c5nnc(C6CC6)[nH]5)C4)C2)C3)CS(=O)(=O)C1 [compound 357],25.6
20,Cc1cc(C)n(C23CC(C4CN(C(=O)N5CC6(CC(c7nc(C8(O)CC8)n[nH]7)C6)C5)C4)(C2)C3)n1 [compound 712],497
21,O=C(N1CC2(CC(c3nc(C4CC4)n[nH]3)C2)C1)N1CC2(CN(Cc3nc(C(F)(F)F)co3)C2)C1 [compound 693],24.5
22,O=C(N1CC2(CC(Cc3nc(C(F)(F)F)c[nH]3)C2)C1)N1CC2(CC(c3nc(C4CC4)n[nH]3)C2)C1 [compound 524],1.4
23,O=C(N1CC2(CC(Cn3cc(OC(F)(F)F)ccc3=O)C2)C1)N1CC2(CC(c3nc(C4CC4)n[nH]3)C2)C1 [compound 757],3.77
24,O=C(N1CC2(CC(c3nc(C4CC4)n[nH]3)C2)C1)N1CC2(CN(Cc3nnn(CC(F)(F)F)n3)C2)C1 [compound 546],140
25,O=C(N1CC(NCc2ccc(F)cc2C(F)(F)F)C1)N1CC2(CC(c3nnc(C4CC4)[nH]3)C2)C1 [compound 196],111
26,O=C(N1CCC(CNS(=O)(=O)c2ccc(C(F)(F)F)cc2)CC1)N1CC2(CC(c3nnc(C4CC4)[nH]3)C2)C1 [compound 250],41.5
